From US10383859B2, “Benzo[d]thiazole derivative or salt thereof, and pharmaceutical composition including same” (Yuhan Corporation, priority 2016, dated 2019) come the findings set out here.

pIC50: −log10 of the molar value.

One assay relates to A549 cells. Put plainly: Cell migration assay (24-well transwell, laminin). The format is cell-based, human. The note with it: Homo sapiens, A549, 6 h, laminin 10 μg/mL in lower well, test compounds 0.39˜100 μM, migrated cells counted, read-out: Inhibitory activity against cell migration. The protocol: Cell migration was measured with a 24-well transwell having a polycarbonate membrane (8.0 μm pore size, Costar) at the bottom of the upper chamber. Each lower well was treated with laminin (10 μg/mL) and test compounds in predetermined concentrations (0.39˜100 μM) along with a serum-free RPMI1640 medium. A549 cells (Korean Cell Line Bank) were suspended in a serum-free RPMI1640 medium at a concentration of 1×10^6 cells/mL and then the test compounds were added thereto at the indicated concentrations. Each resulting solution (100 μL) was added to the upper chamber. The cells were cultured at 37° C. for 6 hours in a CO2 incubator. The upper chamber was taken out and then the cells were fixed with PBS containing 70% methyl alcohol for 10 minutes, followed by washing with PBS twice. The cells were stained with hematoxylin (Sigma) for 10 minutes and then washed with distilled water. The non-migrated cells were removed from the upper portion of the polycarbonate membrane with a cotton swab. The membranes were excised and separated from the chamber, and then mounted to a slide using a gel mount reagent (Biomeda, USA). The migrated cells (attached to the lower face of the membrane) were counted at three randomly selected sites under a microscope (×20). The cell counting was performed with the Image J program. From the counted cell numbers, each IC50 value was calculated by non-linear regression curve fit using the “GraphPad Prism” program.
The cells are pulled by laminin residing in the lower chamber and then passed through the polycarbonate membrane, so as to attach to the lower face of the membrane.
In the case of `COc1ccc(CCN(Cc2ccc(C(=O)O)cc2)c2nc3cccc(F)c3s2)cc1F` [Example 28, 4-({(7-fluorobenzo[d]thiazol-2-yl)[2-(3-fluoro-4-methoxyphenyl)ethyl]amino}methyl)benzoic acid], the pIC50 was over 6.00. Turning to `COc1ccc(CCN(Cc2ccc(C(=O)O)cc2)c2nc3cccc(F)c3s2)cc1Cl` [Example 29, 4-({[2-(3-chloro-4-methoxyphenyl)ethyl](7-fluorobenzo[d]thiazol-2-yl)amino}methyl)benzoic acid], the pIC50 is over 6.00. Turning to `CCC(C)Oc1ccc(CCN(Cc2ccc(C(=O)O)cc2)c2nc3cccc(F)c3s2)cc1` (centres unmarked) [Example 30, 4-{[[2-(4-sec-butoxyphenyl)ethyl](7-fluorobenzo[d]thiazol-2-yl)amino]methyl}benzoic acid], the pIC50 was under 5.00. The same measure, in the same setting: in the case of `CCNc1ccc(CCN(Cc2ccc(C(=O)O)cc2)c2nc3cccc(F)c3s2)cc1` [Example 31, 4-{[[2-(4-ethylaminophenyl)ethyl](7-fluorobenzo[d]thiazol-2-yl)amino]methyl}benzoic acid] it was 5.00 to 6.00. As for `CCc1ccc(CCN(Cc2ccc(C(=O)O)cc2)c2nc3cccc(F)c3s2)cc1` [Example 32, 4-({[2-(4-ethylphenyl)ethyl](7-fluorobenzo[d]thiazol-2-yl)amino}methyl)benzoic acid], the pIC50 is over 6.00.

On to `CC(C)c1ccc(CCN(Cc2ccc(C(=O)O)cc2)c2nc3cccc(F)c3s2)cc1` [Example 33, 4-{[(7-fluorobenzo[d]thiazol-2-yl){2-[4-(propan-2-yl)phenyl]ethyl}amino]methyl}benzoic acid], for which the pIC50 was under 5.00. Still for that read-out and setting: the figure for `O=C(O)c1ccc(CN(CCc2cccc(F)c2F)c2nc3cccc(F)c3s2)cc1` [Example 34, 4-({[2-(2,3-difluorophenyl)ethyl](7-fluorobenzo[d]thiazol-2-yl)amino}methyl)benzoic acid] is under 5.00; for `O=C(O)c1ccc(CN(CCc2cc(F)ccc2F)c2nc3cccc(F)c3s2)cc1` [Example 35, 4-({[2-(2,5-difluorophenyl)ethyl](7-fluorobenzo[d]thiazol-2-yl)amino}methyl)benzoic acid] it is under 5.00. As to `O=C(O)c1ccc(CN(CCc2cc(F)c(F)c(F)c2)c2nc3cccc(F)c3s2)cc1` [Example 36, 4-({(7-fluorobenzo[d]thiazol-2-yl)[2-(3,4,5-trifluorophenyl)ethyl]amino}methyl)benzoic acid], the pIC50 is under 5.00. On to `COc1ccc(CCN(Cc2ccc(C(=O)O)cc2)c2nc3cccc(F)c3s2)cc1Br` [Example 37, 4-({[2-(3-bromo-4-methoxyphenyl)ethyl](7-fluorobenzo[d]thiazol-2-yl)amino}methyl)benzoic acid], for which the pIC50 was under 5.00. Take `O=C(O)c1ccc(CN(CCc2ccc(Cl)cc2Cl)c2nc3cccc(F)c3s2)cc1` [Example 38, 4-({[2-(2,4-dichlorophenyl)ethyl](7-fluorobenzo[d]thiazol-2-yl)amino}methyl)benzoic acid]: the pIC50 is under 5.00. As to `O=C(O)c1ccc(CN(CCc2ccc(F)cc2F)c2nc3cccc(F)c3s2)cc1` [Example 39, 4-({[2-(2,4-difluorophenyl)ethyl](7-fluorobenzo[d]thiazol-2-yl)amino}methyl)benzoic acid], the pIC50 was under 5.00.

In the case of `O=C(O)c1ccc(CN(CCc2ccccc2F)c2nc3cccc(F)c3s2)cc1` [Example 41, 4-({(7-fluorobenzo[d]thiazol-2-yl)[2-(2-fluorophenyl)ethyl]amino}methyl)benzoic acid], the pIC50 is under 5.00. `COc1ccc(CCN(Cc2ccc(C(=O)O)cc2)c2nc3cccc(F)c3s2)c(F)c1F` [Example 43, 4-({[2-(2,3-difluoro-4-methoxyphenyl)ethyl](7-fluorobenzo[d]thiazol-2-yl)amino}methyl)benzoic acid]: the pIC50 was over 6.00. Consider `COc1cc(C)c(CCN(Cc2ccc(C(=O)O)cc2)c2nc3cccc(F)c3s2)cc1C(C)C` [Example 44, 4-{[(7-fluorobenzo[d]thiazol-2-yl){2-[4-methoxy-2-methyl-5-(propan-2-yl)phenyl]ethyl}amino]methyl}benzoic acid], for which the pIC50 was under 5.00. Regarding `COc1cc(F)c(CCN(Cc2ccc(C(=O)O)cc2)c2nc3cccc(F)c3s2)cc1F` [Example 45, 4-({[2-(2,5-difluoro-4-methoxyphenyl)ethyl](7-fluorobenzo[d]thiazol-2-yl)amino}methyl)benzoic acid], the pIC50 was over 6.00. For the compound `COc1ccc(CCN(Cc2ccc(C(=O)O)cc2)c2nc3cccc(F)c3s2)c(Cl)c1` [Example 46, 4-({[2-(2-chloro-4-methoxyphenyl)ethyl](7-fluorobenzo[d]thiazol-2-yl)amino}methyl)benzoic acid], the pIC50 is under 5.00. As for `COc1ccc(CCN(Cc2ccc(C(=O)O)cc2)c2nc3cccc(F)c3s2)c(C)c1C` [Example 47, 4-({(7-fluorobenzo[d]thiazol-2-yl)[2-(4-methoxy-2,3-dimethylphenyl)ethyl]amino}methyl)benzoic acid], the pIC50 was under 5.00. For `COc1cc(C)c(CCN(Cc2ccc(C(=O)O)cc2)c2nc3cccc(F)c3s2)cc1C` [Example 48, 4-({(7-fluorobenzo[d]thiazol-2-yl)[2-(4-methoxy-2,5-dimethylphenyl)ethyl]amino}methyl)benzoic acid], the pIC50 is over 6.00. With `COc1ccc(CCN(Cc2ccc(C(=O)O)cc2)c2nc3cccc(F)c3s2)cc1C` [Example 49, 4-({(7-fluorobenzo[d]thiazol-2-yl)[2-(4-methoxy-3-methylphenyl)ethyl]amino}methyl)benzoic acid], the pIC50 is over 6.00. On to `COc1ccc(CCN(Cc2ccc(C(=O)O)cc2)c2nc3cccc(F)c3s2)c(C)c1` [Example 50, 4-({(7-fluorobenzo[d]thiazol-2-yl)[2-(4-methoxy-2-methylphenyl)ethyl]amino}methyl)benzoic acid], for which the pIC50 was over 6.00. Turning to `COc1cc(F)c(CCN(Cc2ccc(C(=O)O)cc2)c2nc3cccc(F)c3s2)c(F)c1` [Example 51, 4-({[2-(2,6-difluoro-4-methoxyphenyl)ethyl](7-fluorobenzo[d]thiazol-2-yl)amino}methyl)benzoic acid], the pIC50 is over 6.00.

For the compound `COc1ccc(CCN(c2nc3cccc(F)c3s2)C(C)c2ccc(C(=O)O)cc2)cc1` (centres unmarked) [Example 52, 4-(1-{(7-fluorobenzo[d]thiazol-2-yl)[2-(4-methoxyphenyl)ethyl]amino}ethyl)benzoic acid], the pIC50 is over 6.00. Turning to `CCC(c1ccc(C(=O)O)cc1)N(CCc1ccc(OC)cc1)c1nc2cccc(F)c2s1` (centres unmarked) [Example 53, 4-(1-{(7-fluorobenzo[d]thiazol-2-yl)[2-(4-methoxyphenyl)ethyl]amino}propyl)benzoic acid], the pIC50 was over 6.00. Still for that read-out and setting: the figure for `COc1ccc(CCN(c2nc3cccc(F)c3s2)C(C)c2ccc(C(=O)O)cc2)cc1F` (centres unmarked) [Example 54, 4-(1-{(7-fluorobenzo[d]thiazol-2-yl)[2-(3-fluoro-4-methoxyphenyl)ethyl]amino}ethyl)benzoic acid] is under 5.00.

The same assay, now with this note: laminin 10 μg/mL in lower well, test compounds 0.39˜100 μM, 6 hours, migrated cells counted, read-out: Inhibitory activity against cell migration.
For the compound `COc1cccc(CCN(Cc2ccc(C(=O)O)cc2)c2nc3cccc(F)c3s2)c1` [Example 42, 4-({(7-fluorobenzo[d]thiazol-2-yl)[2-(3-methoxyphenyl)ethyl]amino}methyl)benzoic acid], the pIC50 is under 5.00.
